Assay results taken from ChEMBL document CHEMBL4840303, “Design, synthesis, biological evaluation and pharmacophore model analysis of novel tetrahydropyrrolo[3,4-c]pyrazol derivatives as potential TRKs inhibitors” (Eur J Med Chem, 2021).

Legend:
[1] = target: High affinity nerve growth factor receptor (Homo sapiens, UniProt P04629); assay: Inhibition of N-terminal GST-tagged human TRKA (436 to 790 residues) expressed in baculovirus infected Sf21 cells using TK as substrate in presence of ATP measured after 30 mins by HTRF assay
KM12 = assay: cells; conditions: Homo sapiens, KM12, 72 h
Description: Antiproliferative activity against human KM12 cells assessed as inhibition of cell growth measured after 72 hrs by CCK-8 assay

[2] = target: T1, BDNF/NT-3 growth factors receptor (Homo sapiens, UniProt Q16620); assay: Inhibition of N-terminal GST-tagged human TRKB (456 to 822 residues) expressed in baculovirus infected Sf21 cells using TK as substrate in presence of ATP measured after 40 mins by HTRF assay
[3] = target: NT-3 growth factor receptor (Homo sapiens, UniProt Q16288); assay: Inhibition of NT3-activated full length TRKC (unknown origin) by Cell-based beta-galactosidase PathHunter assay
[4] = target: T1, BDNF/NT-3 growth factors receptor; assay: Inhibition of BDNF-activated full length TRKB (unknown origin) by Cell-based beta-galactosidase PathHunter assay
THLE-2 = assay: cells; conditions: Homo sapiens, THLE-2, 72 h
Description: Antiproliferative activity against human THLE-2 cells assessed as inhibition of cell growth measured after 72 hrs by CCK-8 assay

A549 = assay: cells; conditions: Homo sapiens, A549, 72 h
Description: Antiproliferative activity against human A549 cells assessed as inhibition of cell growth measured after 72 hrs by CCK-8 assay

T1 sequence (Q16620 whole entry, the tested form may be a part): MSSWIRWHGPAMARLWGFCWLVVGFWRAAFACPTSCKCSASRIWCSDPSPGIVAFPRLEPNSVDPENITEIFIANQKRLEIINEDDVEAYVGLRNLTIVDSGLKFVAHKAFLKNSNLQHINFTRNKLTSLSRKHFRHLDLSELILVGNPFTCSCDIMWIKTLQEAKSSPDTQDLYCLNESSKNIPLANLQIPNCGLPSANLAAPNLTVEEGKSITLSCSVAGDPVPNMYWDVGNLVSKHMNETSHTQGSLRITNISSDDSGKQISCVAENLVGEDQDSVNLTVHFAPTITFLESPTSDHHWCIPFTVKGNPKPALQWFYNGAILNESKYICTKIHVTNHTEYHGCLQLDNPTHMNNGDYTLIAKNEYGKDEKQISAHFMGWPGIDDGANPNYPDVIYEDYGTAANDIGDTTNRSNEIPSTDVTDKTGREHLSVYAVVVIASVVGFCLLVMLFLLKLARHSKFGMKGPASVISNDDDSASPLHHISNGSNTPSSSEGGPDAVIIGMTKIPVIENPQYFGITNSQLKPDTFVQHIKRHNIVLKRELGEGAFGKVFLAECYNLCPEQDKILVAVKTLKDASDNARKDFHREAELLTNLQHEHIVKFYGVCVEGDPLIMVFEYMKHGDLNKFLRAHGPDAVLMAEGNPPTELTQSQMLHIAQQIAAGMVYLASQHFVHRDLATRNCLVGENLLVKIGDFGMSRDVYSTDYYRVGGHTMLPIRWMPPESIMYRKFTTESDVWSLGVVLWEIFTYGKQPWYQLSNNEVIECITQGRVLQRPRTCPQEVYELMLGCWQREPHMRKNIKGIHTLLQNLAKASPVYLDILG
High affinity nerve growth factor receptor, sequence (P04629 whole entry, the tested form may be a part): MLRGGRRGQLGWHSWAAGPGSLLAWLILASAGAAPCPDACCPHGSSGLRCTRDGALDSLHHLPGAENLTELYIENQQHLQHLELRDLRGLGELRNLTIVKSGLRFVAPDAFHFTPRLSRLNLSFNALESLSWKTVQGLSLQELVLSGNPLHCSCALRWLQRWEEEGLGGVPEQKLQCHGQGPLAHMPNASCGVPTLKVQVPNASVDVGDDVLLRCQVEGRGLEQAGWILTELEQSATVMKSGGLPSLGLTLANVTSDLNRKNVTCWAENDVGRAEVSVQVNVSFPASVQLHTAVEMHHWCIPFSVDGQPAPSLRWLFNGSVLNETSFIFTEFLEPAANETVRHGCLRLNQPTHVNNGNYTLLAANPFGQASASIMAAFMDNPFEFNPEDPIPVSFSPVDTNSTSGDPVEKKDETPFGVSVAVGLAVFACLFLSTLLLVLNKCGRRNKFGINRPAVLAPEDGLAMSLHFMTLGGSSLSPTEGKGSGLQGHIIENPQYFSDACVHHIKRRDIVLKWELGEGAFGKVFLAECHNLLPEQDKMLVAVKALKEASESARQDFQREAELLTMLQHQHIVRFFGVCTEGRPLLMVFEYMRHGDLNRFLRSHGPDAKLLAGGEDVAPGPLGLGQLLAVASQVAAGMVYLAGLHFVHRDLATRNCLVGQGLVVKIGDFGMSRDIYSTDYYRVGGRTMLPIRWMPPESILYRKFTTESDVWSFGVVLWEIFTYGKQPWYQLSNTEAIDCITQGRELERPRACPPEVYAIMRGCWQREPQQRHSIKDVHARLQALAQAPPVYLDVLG
NT-3 growth factor receptor, sequence (Q16288 whole entry): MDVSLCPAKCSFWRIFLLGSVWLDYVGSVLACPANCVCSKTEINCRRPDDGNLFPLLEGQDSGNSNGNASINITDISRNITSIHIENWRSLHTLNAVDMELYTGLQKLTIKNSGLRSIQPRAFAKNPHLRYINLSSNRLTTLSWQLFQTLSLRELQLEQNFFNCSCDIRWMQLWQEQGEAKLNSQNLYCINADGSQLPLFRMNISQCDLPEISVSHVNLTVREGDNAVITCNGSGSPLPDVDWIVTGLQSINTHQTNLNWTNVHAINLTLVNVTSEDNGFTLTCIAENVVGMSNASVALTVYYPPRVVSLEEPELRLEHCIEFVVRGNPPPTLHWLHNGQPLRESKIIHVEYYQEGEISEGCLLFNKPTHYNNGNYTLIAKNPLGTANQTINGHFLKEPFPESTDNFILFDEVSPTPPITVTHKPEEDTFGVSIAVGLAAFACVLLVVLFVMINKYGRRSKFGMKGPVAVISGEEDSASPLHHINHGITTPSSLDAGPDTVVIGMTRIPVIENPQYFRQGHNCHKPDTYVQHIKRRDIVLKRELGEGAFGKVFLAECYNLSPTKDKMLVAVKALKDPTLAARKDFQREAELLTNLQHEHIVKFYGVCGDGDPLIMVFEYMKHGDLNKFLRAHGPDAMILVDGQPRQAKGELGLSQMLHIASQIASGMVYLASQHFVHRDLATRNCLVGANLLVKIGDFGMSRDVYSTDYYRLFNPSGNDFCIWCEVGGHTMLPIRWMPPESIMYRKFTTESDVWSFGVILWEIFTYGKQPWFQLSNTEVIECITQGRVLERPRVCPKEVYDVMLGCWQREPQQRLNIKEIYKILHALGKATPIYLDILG

SMILES | IC50 [1] [nM] | also measured
Cc1ccc(F)c(CN2Cc3c(NC(=O)c4ccccc4)n[nH]c3C2(C)C)c1 | 880 | –
CC1(C)c2[nH]nc(NC(=O)c3ccccc3)c2CN1Cc1ccc(F)cc1F | 2320 | –
Cc1cccc(CN2Cc3c(NC(=O)c4ccccc4)n[nH]c3C2(C)C)c1 | 1100 | –
CC1(C)c2[nH]nc(NC(=O)c3ccc4ncccc4c3)c2CN1Cc1cc(F)cc(F)c1 | 180 | –
CC1(C)c2[nH]nc(NC(=O)c3ccccc3)c2CN1Cc1ccc(F)c(F)c1 | 680 | –
CN(C)c1cccc(C(=O)Nc2n[nH]c3c2CN(Cc2cc(F)cc(F)c2)C3(C)C)c1 | 270 | –
CC1(C)c2[nH]nc(NC(=O)c3ccc4ccccc4c3)c2CN1Cc1cc(F)cc(F)c1 | 440 | –
CC1(C)c2[nH]nc(NC(=O)c3ccccc3)c2CN1Cc1cc(F)c(F)c(F)c1 | 6960 | –
CN1CCN(c2cccc(C(=O)Nc3n[nH]c4c3CN(Cc3cccc(F)c3F)C4(C)C)c2)CC1 | 210 | –
CC1(C)c2[nH]nc(NC(=O)c3cccc(N4CCOCC4)c3)c2CN1Cc1cccc(F)c1F | 270 | –
CN(C)c1cccc(C(=O)Nc2n[nH]c3c2CN(Cc2cccc(F)c2F)C3(C)C)c1 | 420 | –
CC1(C)c2[nH]nc(NC(=O)c3ccccc3)c2CN1Cc1cccc(Cl)c1 | 670 | –
CC1(C)c2[nH]nc(NC(=O)c3ccccc3)c2CN1Cc1cccc([N+](=O)[O-])c1 | 600 | –
CC1(C)c2[nH]nc(NC(=O)c3ccccc3)c2CN1Cc1ccc(F)cc1 | 1180 | –
CC1(C)c2[nH]nc(NC(=O)c3ccc(Br)cc3)c2CN1Cc1cc(F)cc(F)c1 | 710 | –
CC1(C)c2[nH]nc(NC(=O)c3ccccc3)c2CN1Cc1ccccc1 | 1240 | –
CC1(C)c2[nH]nc(NC(=O)c3cccc(N4CCOCC4)c3)c2CN1Cc1cc(F)cc(F)c1 | 120 | IC50 (KM12): > 1000 nM; IC50 [2]: 170 nM
CC1(C)c2[nH]nc(NC(=O)c3ccccc3)c2CN1Cc1cccc(I)c1 | 1360 | –
CC1(C)c2[nH]nc(NC(=O)c3ccccc3)c2CN1Cc1ccccc1F | 450 | –
CN(C)c1ccc(C(=O)Nc2n[nH]c3c2CN(Cc2cccc(F)c2F)C3(C)C)cc1 | 69 | –
Cc1ccc(CN2Cc3c(NC(=O)c4ccccc4)n[nH]c3C2(C)C)cc1F | 940 | –

SMILES | IC50 [1] [nM] | also measured
CC1(C)c2[nH]nc(NC(=O)c3ccccc3)c2CN1Cc1c(F)cccc1F | 520 | –
CC1(C)c2[nH]nc(NC(=O)c3ccccc3)c2CN1Cc1cc(F)ccc1F | 480 | –
CN(C)c1ccc(C(=O)Nc2n[nH]c3c2CN(Cc2cc(F)cc(F)c2)C3(C)C)cc1 | 96 | –
CC1(C)c2[nH]nc(NC(=O)c3ccccc3)c2CN1Cc1cc(C(F)(F)F)cc(C(F)(F)F)c1 | 16400 | –
CC1(C)c2[nH]nc(NC(=O)c3ccccc3)c2CN1Cc1cccc(C#N)c1 | 980 | –
CC1(C)c2[nH]nc(NC(=O)c3ccccc3)c2CN1Cc1cccc(F)c1 | 470 | –
CC1(C)c2[nH]nc(NC(=O)c3ccc4ccccc4c3)c2CN1Cc1cccc(F)c1F | 460 | –
CC1(C)c2[nH]nc(NC(=O)c3ccccc3)c2CN1Cc1cc(F)cc(F)c1 | 190 | –
CC1(C)c2[nH]nc(NC(=O)c3ccccc3)c2CN1Cc1cccc(Br)c1 | 940 | –
CN1CCN(c2cccc(C(=O)Nc3n[nH]c4c3CN(Cc3cc(F)cc(F)c3)C4(C)C)c2)CC1 | 150 | IC50 (KM12): > 1000 nM; IC50 [2]: 190 nM
CC1(C)c2[nH]nc(NC(=O)c3ccc(F)cc3)c2CN1Cc1cccc(F)c1F | 210 | –
Cc1ncc(NC(=O)NC2c3ccccc3-c3ccccc32)c(-c2ccccc2)n1 | – | IC50 [3]: 2500 nM; IC50 [4]: > 8100 nM
CN1CCN(c2ccc(C(=O)Nc3n[nH]c4c3CN(Cc3cccc(F)c3F)C4(C)C)cc2)CC1 | 17 | IC50 (KM12): 216 nM; IC50 (THLE-2): > 100000 nM; IC50 (A549): 64200 nM; IC50 [2]: 23 nM
CC1(C)c2[nH]nc(NC(=O)c3ccc(N4CCOCC4)cc3)c2CN1Cc1cccc(F)c1F | 29 | IC50 (KM12): 146 nM; IC50 (THLE-2): 49500 nM; IC50 (A549): 88500 nM; IC50 [2]: 35 nM
CC1(C)c2[nH]nc(NC(=O)c3ccccc3)c2CN1Cc1cc(F)cc(C(F)(F)F)c1 | 1000 | –
CC1(C)c2[nH]nc(NC(=O)c3ccccc3)c2CN1Cc1cccc(F)c1F | 200 | –
CC1(C)c2[nH]nc(NC(=O)c3ccc(N4CC[N+](C)(Cc5cc(F)cc(F)c5)CC4)cc3)c2CN1Cc1cc(F)cc(F)c1 | 95 | –
CC1(C)c2[nH]nc(NC(=O)c3ccc(N4CCOCC4)cc3)c2CN1Cc1cc(F)cc(F)c1 | 14 | IC50 (KM12): 211 nM; IC50 (THLE-2): > 100000 nM; IC50 (A549): > 100000 nM; IC50 [2]: 27 nM
CC1(C)c2[nH]nc(NC(=O)c3ccc(Br)cc3)c2CN1Cc1cccc(F)c1F | 950 | –
COc1cccc(CN2Cc3c(NC(=O)c4ccccc4)n[nH]c3C2(C)C)c1 | 1120 | –
CC1(C)c2[nH]nc(NC(=O)c3ccc(F)cc3)c2CN1Cc1cc(F)cc(F)c1 | 350 | –
